Assay [1] deals with human primed state stem cells. Kind of assay: stem cell drug screening assay on primed state stem cells. Particulars: treated for 3 days, bFGF absent. In kind it is cell-based. The method, then: The stem cell screening assay, was performed in both the presence and absence of the stem cell growth factors: NME7AB for growing naïve stem cells or FGF for growing primed stem cells. If the cognate growth factor was present, then the biological or small molecule would have to compete away the growth factor to get an effect. Therefore, we expected to see more of an effect when the growth factor, FGF for primed stem cells or NME7AB or NME1 dimers for naïve stem cells, was absent. The effect of the compounds on stem cells was visually determined and compounds were ranked 0-4, with 4 being the greatest effect and 0 being no observable effect. The major effect that was observed was a change from pluripotent stem cell morphology, which is a cobblestone pattern of small round cells with a large nucleus to cytoplasm ratio, to that of differentiating stem cells, which are elongated, large and flattened cells with a smaller nucleus to cytoplasm ratio. […] The compounds were added to a final concentration of 6 uM to either naïve state stem cells or primed state stem cells. In this particular case, the naïve state stem cells were maintained in a naïve state by culturing in a media containing NME7AB or NME1 dimers. However, other methods such as 2i and 5i (Silva et al., 2008, Nichols and Smith, 2009, Theunissen et al., 2014)] can be used to maintain stem cells in a more naïve state. In this case primed state stem cells were cultured in bFGF over a layer of MEFs, although it is known that any bFGF containing media will maintain stem cells in the primed state.
Stem cells whether embryonic or induced pluripotent stem (iPS) cells were cultured in a minimal, serum-free media that contained human recombinant bFGF at a concentration of 8 ng/mL. The stem cells were plated over a layer of inactivated mouse embryonic fibroblasts, aka MEFs, which secrete additional uncharacterized growth factors and cytokines.
Human naïve state and primed stem cells were cultured in parallel for at least 5 passages to guarantee normal differentiation-free growth. The stem cells were plated in 12-well cell culture plates with 50,000 cells per well. Cells were cultured in their respective media, either bFGF media or NME7AB media for 24 hours. Media was then removed and replaced with media devoid of bFGF or NME7AB, when indicated. Agents being tested for their ability to induce differentiation of naïve stem cells were added to the media at the concentrations indicated. After 72 hours, photographs were taken see FIGS. 1-10.
Human naïve state and primed stem cells were cultured in parallel for at least 5 passages to guarantee normal differentiation-free growth. The stem cells were plated in 12-well cell culture plates with 50,000 cells per well. Cells were cultured in their respective media, either bFGF media or NME7AB media for 24 hours. Media was then removed and replaced with media devoid of bFGF or NME7AB. […] Media was changed after 48 hours and replaced with fresh media containing the BRD4 inhibitors. After 4 days the experiment was stopped. Photographs were taken and cell pellets collected for further analysis, see FIGS. 11-16.

The test system of assay [2] is OV-90 MUC1* negative ovarian cancer cells. The experiment in a line: cancer cell proliferation assay (Calcein). In kind it is cell-based. Particulars: 96 hours (FIG. 114). The protocol:
Small molecule inhibition of cancer cell proliferation studies were also performed on several cancer sub-types. […] The small molecules of the invention had the most robust effect on T47D breast cancer cells, which are highly positive for MUC1* growth factor receptor, and its activating ligands NME7AB and NME7-X1. […] For the cancer cell proliferation experiment cancer cells were plated at constant densities (6000 cells/well) into a 96-well White-walled/Clear-bottom Tissue Culture Treated plate (Corning Incorporated, Big Flats, N.Y.). Small molecule analogs are added at T=24 hours in media with 2% FBS. Following the addition of the small molecules, the cells remain untouched for 120 hours with visual confirmations/inspections at 24, 48, 72 and 96 hours post plating. At the 120 hour mark a calcein fluorescence assay (Thermo Fisher Scientific, Waltham, Mass.) is performed on the plate. Calcein fluorescence (final concentration 0.5 uM) is used to assess cell viability. Cancer cell fluorescence is measured in a TECAN SAFIRE^2 spectrophotometer plate reader. The plate is then imaged using an Olympus IX71 fluorescence imaging microscope and montage of the resulting images are assembled using ImageJ.

Assay [3] has as its system E-cadherin, fibronectin, vimentin and NF1 expression in naïve stem cells. Kind of assay: RT-PCR of differentiation markers in treated naïve stem cells. Type of assay: cell-based, human. The method, then: FIG. 161 is a graph of RT-PCR measurement of naïve stem cells that have been treated with compounds of the invention. The genes whose expression is measured are E-cadherin, which goes […] as cells undergo epithelial to mesenchymal transition, fibronectin and vimentin, which both increase as stem cells initiate differentiation and NF1, which is one of the first genes to increase when stem cells begin to differentiate down the neural lineage. […] E-cadherin is the opposite; it […] as cells become cancerous. […] Expression of metastatic marker E-cadherin was reduced and expression of differentiation markers fibronectin, vimentin and NF1 were increased (FIG. 162-FIG. 163). Novel compounds of the invention are highly specific. […] Although we discovered that NME1 dimers, NME7AB and NME7-X1 are all activating ligands of the MUC1* growth factor receptor and they bind to its extracellular domain, we have developed ample evidence that both NME7AB and NME7-X1 have other binding partners and can exert oncogenic effects, independent of MUC1*.

The structures appear in SMILES notation. “Also recorded” adds a separate entry of the source.

On to `Cc1sc2c(c1C)C(c1ccc(Cl)cc1)=N[C@@H](CC(=O)OC(C)(C)C)c1nnc(C)n1-2` [JQ1+, JQ1], for which, in assay [1] (listed as JQ1(+)), the “effect on primed stem cell colony size and morphology” value was “modest effect on the size of primed stem cell colonies; also recorded: some abnormal morphology”; the “induction of differentiation of primed state stem cells” value is “None of these agents appeared to induce differentiation”. Also, the “induction of differentiation of primed state stem cells” value in assay [1] (listed as JQI) is listed as “not primed stem cell growth”. Also, in assay [2], the “effect on growth of OV-90 cells” value was “neither the compounds of the invention nor JQ1 or SU11274 had any apparent effect”. In assay [3], the “up-regulation of markers of differentiation in naïve stem cells (RT-PCR)” value was “did not cause up-regulation of markers of differentiation”.

The values are drawn from patent US11931347B2, “Method of screening for agents for differentiating stem cells” (MINERVA BIOTECHNOLOGIES CORPORATION, priority 2015, dated 2024).
